Experimental data taken from patent US9073862B2, “Substituted 2-oxy-quinoline-3-carboxamides as KCNQ2/3 modulators” (Grünenthal GmbH, priority 2010, dated 2015).

Tests used:
KCNQ2/3 channels = target: T1, KCNQ2/3 channels (Homo sapiens, UniProt O43525+O43526); assay: Fluorescence assay using a voltage sensitive dye (fluorimetry); type: cell-based; details: CHO-K1 cells expressing KCNQ2/3 channels; for Emax: relative to retigabine = 100%, read-out: Fluorimetry % efficacy (retigabine = 100%)
T1 construct: expressed in transfected cells; host or cells: CHO-K1
Description: Method I. Fluorescence Assay Using a Voltage Sensitive Dye (Fluorimetry)
[…] CHO-K1 cells expressing KCNQ2/3 channels are cultivated adherently at 37° C., 5% CO2 and 95% humidity in cell culture bottles (e.g. 80 cm^2 TC flasks, Nunc) with DMEM-high glucose (Sigma Aldrich, D7777) including 10% FCS (PAN Biotech, e.g. 3302-P270521) or alternatively MEM Alpha Medium (1×, liquid, Invitrogen, #22571), 10% fetal calf serum (FCS) (Invitrogen, #10270-106, heat-inactivated) and the necessary selection antibiotics.
Before being sown out for the measurements, the cells are washed with 1×DPBS buffer Ca^2+/Mg^2+-free (e.g. Invitrogen, #14190-094) and detached from the bottom of the culture vessel by using Accutase (PAA Laboratories, #L11-007) (incubation with Accutase for 15 min at 37° C.). The cell number is determined using a CASY™ cell counter (TCC, Schärfe System). Depending on the optimal density for each individual cell line, 20,000-30,000 cells/well/100 μl are seeded onto 96-well Corning™ CellBIND™ assay plates (Flat Clear Bottom Black Polystyrene Microplates, #3340). Freshly seeded cells are then left to settle for one hour at room temperature, followed by incubation for 24 hours at 37° C., 5% CO2 and 95% humidity.
The voltage-sensitive fluorescent dye from the Membrane Potential Assay Kit (Red™ Bulk format part R8123 for FLIPR, MDS Analytical Technologies™) is prepared by dissolving the contents of one vessel Membrane Potential Assay Kit Red Component A in 200 ml of extracellular buffer (ES buffer, 120 mM NaCl, 1 mM KCl, 10 mM HEPES, 2 mM CaCl2, 2 mM MgCl2, 10 mM glucose; pH 7.4). After removal of the nutrient medium, the cells are washed once with 200 μl of ES buffer, then loaded for 45 min at room temperature in 100 μl of dye solution in the dark.
Fluorescence measurements are carried out in a BMG Labtech FLUOstar™, BMG Labtech NOVOstar™ or BMG Labtech POLARstar™ instrument (525 nm excitation, 560 nm emission, Bottom Read mode). After incubation with the dye, 50 μl of the test substances in the desired concentrations, or 50 μl of ES buffer for control purposes, are applied to the wells of the assay plate and incubated for 30 min at room temperature while being shielded from light. The fluorescence intensity of the dye is then measured for 5 min and the fluorescence value F1 of each well is thus determined at a given, constant time. 15 μl of a KCl solution are then added to each well (final concentration of potassium ions 92 mM). The change in fluorescence intensity is subsequently monitored until all the relevant values have been obtained (mainly 5-30 min). At a given time post KCl application, a fluorescence value F2 is determined, in this case at the time of the fluorescence peak.
For calculation, the fluorescence intensity F2 is corrected for the fluorescence intensity F1, and the activity (ΔF/F) of the target compound on the potassium channel is determined as follows:
In order to determine whether a substance has agonistic activity,
[formula] can be related to
[formula] of control wells.
[formula] is determined by adding to the well only the buffer solution instead of the test substance, determining the value F1K of the fluorescence intensity, adding the potassium ions as described above, and measuring a value F2K of the fluorescence intensity. F2K and F1K are then calculated as follows: […]
A substance has an agonistic activity on the potassium channel if
[formula] is greater than
Independently of the comparison of
[formula] it is possible to conclude that a target compound has agonistic activity if
[formula] increases dose dependently.
Calculations of EC50 and IC50 values are carried out with the aid of ‘Prism v4.0’ software (Graph Pad Software™).

[1] = system: withdrawal reflex of the rat tail (tail flick) in response to a radiant heat beam; assay: Low-intensity tail flick test (rat); type: in vivo; details: po, peroral; for ED50: at time of maximum efficacy
Description: Method II. Low-Intensity Tail Flick Test (Rat)
In the low-intensity tail flick test, the determination of the antinociceptive effect of the compounds according to the invention towards an acute noxious thermal stimulus is carried out by measuring the withdrawal reflex of the rat tail (tail flick) in response to a radiant heat beam (analgesia meter; model 2011 of the company Rhema Labortechnik, Hofheim, Germany) according to the method described by D'Amour and Smith (J. Pharm. Exp. Ther. 72, 74 79 (1941). To this end, the rats were placed in a plexiglas restrainer, and a low-intensity radiant heat beam (48° C.) was focused onto the dorsal surface of the tail root. The stimulus intensity was adjusted to result in a mean pre-drug control withdrawal latency of about 7 s, thus also allowing a supraspinal modulation of the spinally mediated acute nociceptive reflex. A cutoff time of 30 s was applied to avoid tissue damage. Male Sprague-Dawley rats (Janvier, Le Genest St. Isle, Frankreich) with weights of 200-250 g were used. 10 rats were used per group. Before administration of a compound according to the invention, the animals were pre-tested twice in the course of five minutes and the mean of these measurements was calculated as the pre-test mean. The antinociceptive effect was determined at 20, 40 and 60 min after peroral compound administration. The antinociceptive effect was calculated based on the increase in the tail withdrawal latency according to the following formula and is expressed as percentage of the maximum possible effect (MPE [%]): MPE=[(T1−T0)/(T2−T0)]*100
In this, T0 is the control latency time before and T1 the latency time after administration of the compound, T2 is the cutoff time and MPE is the maximum possible effect. Employing variant analysis (repeated measures ANOVA) allowed testing of statistically significant differences between the compounds according to the invention and the vehicle group. The significance level was set to p≦0.05. To determine the dose dependency, the particular compound according to the invention was administered in 3-5 logarithmically increasing doses, including a threshold dose and a maximum effective dose, and the ED50 values were determined with the aid of regression analysis. The ED50 calculation was performed at the time of maximum efficacy (usually 20 min after administration of the compounds).

[2] = read-out: Low intensity tail flick, rat, peroral, MPE (dose)

Compound | EC50 (KCNQ2/3 channels) [nM] | Emax (KCNQ2/3 channels) [%] | ED50 [1] [mg/kg] | inhibition in vivo at 6.81 mg/kg ([1]; dose 6.81 mg/kg, read-out: Low intensity tail flick, rat, peroral, MPE (dose)) [%] | inhibition in vivo at 4.64 mg/kg [1, 2] [%] | inhibition in vivo at 10 mg/kg [1, 2] [%]
CCOc1nc2cc(C(F)(F)F)ccc2c(C)c1C(=O)NCc1ccc(F)cc1 [Example 3, 2-ethoxy-N-[(4-fluorophenyl)-methyl]-4-methyl-7-(trifluoromethyl)-quinoline-3-carboxylic acid amide] | 39 | 122 | 2.5 | – | – | –
COc1nc2cc(C(F)(F)F)ccc2c(C)c1C(=O)NCc1cccc(F)c1 [Example 4, N-[(3-fluorophenyl)-methyl]-2-methoxy-4-methyl-7-(trifluoromethyl)-quinoline-3-carboxylic acid amide] | 73 | 105 | 6.7 | – | – | –
COc1nc2cc(C(F)(F)F)ccc2c(C)c1C(=O)NCc1ccc(F)cc1 [Example 5, N-[(4-fluorophenyl)-methyl]-2-methoxy-4-methyl-7-(trifluoromethyl)-quinoline-3-carboxylic acid amide] | 57 | 122 | – | 34 | – | –
CCOc1nc2cc(C(F)(F)F)ccc2c(C)c1C(=O)NCc1cccc(F)c1 [Example 6, 2-ethoxy-N-[(3-fluorophenyl)-methyl]-4-methyl-7-(trifluoromethyl)-quinoline-3-carboxylic acid amide] | 58 | 132 | – | – | 67 | –
COCCOc1nc2cc(C(F)(F)F)ccc2c(C)c1C(=O)NCc1cccc(F)c1 [Example 7, N-[(3-fluorophenyl)-methyl]-2-(2-methoxy-ethoxy)-4-methyl-7-(trifluoromethyl)-quinoline-3-carboxylic acid amide] | 96 | 92 | 10 | – | – | –
COCCOc1nc2cc(C(F)(F)F)ccc2c(C)c1C(=O)NCc1ccc(F)cc1 [Example 8, N-[(4-fluorophenyl)-methyl]-2-(2-methoxy-ethoxy)-4-methyl-7-(trifluoromethyl)-quinoline-3-carboxylic acid amide] | 143 | 94 | – | – | – | 22
Cc1c(C(=O)NCc2cccc(F)c2)c(OC(C)C)nc2cc(C(F)(F)F)ccc12 [Example 10, N-[(3-fluorophenyl)-methyl]-2-isopropoxy-4-methyl-7-(trifluoromethyl)-quinoline-3-carboxylic acid amide] | 87 | 175 | 3.8 | – | – | –
CCOc1nc2cc(C(F)(F)F)ccc2c(OC)c1C(=O)NCc1cccc(F)c1 [Example 12, 2-ethoxy-N-[(3-fluorophenyl)-methyl]-4-methoxy-7-(trifluoremethyl)-quinoline-3-carboxylic acid amide] | 104 | 170 | – | – | 27 | –
COc1nc2cc(C(F)(F)F)ccc2c(OC)c1C(=O)NCc1cccc(F)c1 [Example 13, N-[(3-fluorophenyl)-methyl]-2,4-dimethoxy-7-(trifluoromethyl)-quinoline-3-carboxylic acid amide] | 136 | 147 | – | – | – | 10
COc1nc2cc(C(F)(F)F)ccc2c(OC)c1C(=O)NCc1ccc(F)cc1 [Example 16, N-[(4-fluorophenyl)-methyl]-2,4-dimethoxy-7-(trifluoromethyl)-quinoline-3-carboxylic acid amide] | 106 | 159 | – | – | – | 74

Second part, led by results:

EC50 (KCNQ2/3 channels) [nM] | Emax (KCNQ2/3 channels) [%] | Compound | ED50 [1] [mg/kg] | inhibition in vivo at 6.81 mg/kg ([1]; dose 6.81 mg/kg, read-out: Low intensity tail flick, rat, peroral, MPE (dose)) [%] | inhibition in vivo at 4.64 mg/kg [1, 2] [%] | inhibition in vivo at 10 mg/kg [1, 2] [%]
72 | 146 | CCOc1nc2cc(C(F)(F)F)ccc2c(C)c1C(=O)NCc1ccc(C)c(F)c1 [Example 20, 2-ethoxy-N-[(3-fluoro-4-methyl-phenyl)-methyl]-4-methyl-7-(trifluoromethyl)-quinoline-3-carboxylic acid amide] | – | – | – | 24
2060 | 87 | COc1nc2cc(C(F)(F)F)ccc2c(C)c1C(=O)NCc1ccc(O)c(F)c1 [Example 45, N-[(3-fluoro-4-hydroxy-phenyl)-methyl]-2-methoxy-4-methyl-7-(trifluoromethyl)-quinoline-3-carboxylic acid amide] | – | – | – | –
299 | 59 | COc1nc2cc(F)ccc2c(C)c1C(=O)NCc1ccc(F)cc1 [Example 46, 7-fluoro-N-[(4-fluorophenyl)-methyl]-2-methoxy-4-methyl-quinoline-3-carboxylic acid amide] | – | – | – | –
– | 43 | COc1nc2cc(F)cc(F)c2c(C)c1C(=O)NCc1cccc(F)c1 [Example 47, 5,7-difluoro-N-[(3-fluorophenyl)-methyl]-2-methoxy-4-methyl-quinoline-3-carboxylic acid amide] | – | – | – | –
315 | 96 | COc1nc2cc(F)c(F)cc2c(C)c1C(=O)NCc1cccc(F)c1 [Example 48, 6,7-difluoro-N-[(3-fluorophenyl)-methyl]-2-methoxy-4-methyl-quinoline-3-carboxylic acid amide] | – | – | – | –
229 | 70 | COc1nc2c(F)c(F)ccc2c(C)c1C(=O)NCc1cccc(F)c1 [Example 49, 7,8-difluoro-N-[(3-fluorophenyl)-methyl]-2-methoxy-4-methyl-quinoline-3-carboxylic acid amide] | – | – | – | –
– | 40 | COc1nc2ccccc2c(C(F)(F)F)c1C(=O)NCc1cccc(F)c1 [Example 51, N-[(3-fluorophenyl)-methyl]-2-methoxy-4-(trifluoromethyl)-quinoline-3-carboxylic acid amide] | – | – | – | –
205 | 67 | CCOc1nc2ccccc2c(C(F)(F)F)c1C(=O)NCc1cccc(F)c1 [Example 52, 2-ethoxy-N-[(3-fluorophenyl)-methyl]-4-(trifluoromethyl)-quinoline-3-carboxylic acid amide] | – | – | – | –
108 | 84 | CC(C)Oc1nc2ccccc2c(C(F)(F)F)c1C(=O)NCc1cccc(F)c1 [Example 53, N-[(3-fluorophenyl)-methyl]-2-isopropoxy-4-(trifluoromethyl)-quinoline-3-carboxylic acid amide] | – | – | – | –
